Experiment [1] has as its system domain 1 crystallization RNA, 5-bromocytidine form (RNA, riboswitch, 5-bromocytidine at 3 or at 42 and 45 (which form per ligand: Table S1, not seen)) GGCUUCAACAACCCCGUAGGUUGGGCCGAAAGGCAGCGAAUCUACUGGAGCC
The experiment is described as follows: X-ray crystallography. The note with it: Mg2+.

Experiment [2] relates to NAD+ riboswitch domain 1, wild type (unmodified domain 1 RNA) (RNA, riboswitch) GGCUUCAACAACCCCGUAGGUUGGGCCGCAAGGCAGCGAAUCUACUGGAGCC
The experiment is described as follows: ITC. The note with it: 100 mM KCl, 10 mM MgCl2; 40 mM HEPES-K pH 7.0 (pH 7.2 in Figure 5 legend), 298 K.

For experiment [3], the system named is C6 2'-deoxy atomic mutant domain 1 (RNA, riboswitch, 2'-deoxy at 6) GGCUUCAACAACCCCGUAGGUUGGGCCGCAAGGCAGCGAAUCUACUGGAGCC
The experiment is described as follows: ITC. The note with it: 100 mM KCl, 10 mM MgCl2; 40 mM HEPES-K pH 7.0, 298 K; 1 mM ligand titrated into 100 µM RNA.

Experiment [4] concerns C6U:G47A mutant domain 1 (RNA, riboswitch) GGCUUUAACAACCCCGUAGGUUGGGCCGCAAGGCAGCGAAUCUACUAGAGCC
The experiment is described as follows: ITC. Particulars: 100 mM KCl, 10 mM MgCl2; 40 mM HEPES-K pH 7.0, 298 K; 1 mM ligand titrated into 100 µM RNA.

In experiment [5] the test system is G47 2'-deoxy atomic mutant domain 1 (RNA, riboswitch, 2'-deoxy at 47) GGCUUCAACAACCCCGUAGGUUGGGCCGCAAGGCAGCGAAUCUACUGGAGCC
The experiment is described as follows: ITC. The note with it: 100 mM KCl, 10 mM MgCl2; 40 mM HEPES-K pH 7.0, 298 K; 1 mM ligand titrated into 100 µM RNA.

Experiment [6] deals with domain 1 crystallization RNA, unmodified (RNA, riboswitch) GGCUUCAACAACCCCGUAGGUUGGGCCGAAAGGCAGCGAAUCUACUGGAGCC
The experiment is described as follows: X-ray crystallography. The note with it: Mg2+.

By Kd is commonly meant the free concentration of one partner at which half of the binding sites on the other are occupied at equilibrium, for simple one-to-one binding. Lower therefore signals higher affinity. With `CNc1ncnc2c1ncn2[C@@H]1O[C@H](COP(=O)(O)OP(=O)(O)OP(=O)(O)O)[C@@H](O)[C@H]1O`, the binding result in experiment [1] was “yes”. The compound further showed a dissociation constant Kd in experiment [2] of 50 ± 19 µM. In the case of `NC(=O)C1=CN([C@@H]2O[C@H](COP(=O)(O)OP(=O)(O)OC[C@H]3O[C@@H](n4cnc5c(N)ncnc54)[C@H](O)[C@@H]3O)[C@@H](O)[C@H]2O)C=CC1`, the binding result in experiment [1] (only ADP moiety visible, also Mn2+ form 6TFH) was “yes”. As to `NC(=O)c1ccc[n+]([C@@H]2O[C@H](COP(=O)(O)OP(=O)(O)OC[C@H]3O[C@@H](n4cnc5c(N)ncnc54)[C@H](O)[C@@H]3O)[C@@H](O)[C@H]2O)c1`, the binding result in experiment [1] (ADP moiety and nicotinamide ribose 5' carbon visible) is “yes”. Also, the Kd in experiment [2] is listed as above 150 µM. With `Nc1ncnc2c1ncn2[C@@H]1O[C@H](COP(=O)(O)O)[C@@H](O)[C@H]1O`, in experiment [1], the binding entry is given as “yes”. For `Nc1ncnc2c1ncn2[C@@H]1O[C@H](COP(=O)(O)OP(=O)(O)O)[C@@H](O)[C@H]1O`, the binding entry in experiment [3] is reported as “weak”; in experiment [4], “no”; in experiment [5] it was “weak”; in experiment [6] it was “yes”. Besides, in experiment [2], the Kd is recorded as 89 ± 15 µM. Regarding `Nc1ncnc2c1ncn2[C@@H]1O[C@H](COP(=O)(O)OP(=O)(O)OP(=O)(O)O)C[C@H]1O`, in experiment [6], the binding entry is “yes”.

Regarding `Nc1ncnc2c1ncn2[C@@H]1O[C@H](COP(=O)(O)OP(=O)(O)OP(=O)(O)O)[C@@H](O)[C@H]1O`, the binding result in experiment [1] is listed as “yes”. As to `Nc1ncnc2c1ncn2[C@@H]1O[C@H](COP(=O)(O)OS(=O)(=O)O)[C@@H](OP(=O)(O)O)[C@H]1O`, the binding entry in experiment [6] is “yes”.

Values taken from PMC7297122 (2020).
